Experimental data taken from patent US10647680B2, “Urea compound, preparation method therefor and medical use thereof” (Ancureall Pharmaceutical (Shanghai) Co., Ltd., priority 2016, dated 2020).

Experiments:
[1] = system: K562 (FLT3 negative expression, positive expression of BCR-ABL fusion protein); experiment: In vitro growth inhibition (GI50), K562; assay type: cell-based; conditions: Homo sapiens, Cell lines of leukemia, read-out: GI 50 K562 BCR-ABL
[2] = system: AU565 (HER2/ErbB2 amp); experiment: In vitro growth inhibition (GI50), AU565; assay type: cell-based; conditions: Homo sapiens
Excerpt: Tumor cell line is an effective cell model for studying the inhibition of tumor cell growth or proliferation in vitro. In the present invention, a representative tumor cell line was selected to determine the cell growth inhibition activity of the present compound. All cell lines used were from ATCC, DSMZ, and the Cell Bank of the Chinese Academy of Sciences. Cell culture conditions and methods were in accordance with the requirements of each cell line. Cells were subcultured in vitro for no more than 3 passages each time, and as required, single-clone purification and identification of cell lines could be carried out.
The cell culture media used were RPMI1640 (Gibco), MEM (Gibco), McCOY'S5A (Gibco), and IMDM (Gibco). The complete medium was prepared by supplement with 5˜20% fetal calf serum (Gibco), 1% double-antibiotics (10000 units/mL penicillin and 10000 units/mL), 2 mM glutamine or 1 mM sodium pyruvate, respectively.
Human gastric cancer cell line NCI-N87 (HER2/ErbB2 amp, ATCC), human breast cancer cell line HCC1954 (HER2/ErbB2 amp, ATCC) and ZR-75-30 (HER2/ErbB2 amp, ATCC), human adenocarcinoma cell line AU565 (HER2/ErbB2 amp, ATCC), human lung squamous cell carcinoma cell line NCI-H2170 (HER2/ErbB2 amp, ATCC), human bronchioalveolar adenocarcinoma cell line NCI-H1781 (HER2/ErbB2 Ins G776V,C mutant type, ATCC) were cultured with a 1×RPMI1640 complete medium (10% FBS), respectively. Human lung adenocarcinoma cell line Calu-3 (HER2/ErbB2 amp, ATCC) was cultured with 1×MEM, 10% FBS, 1% double antibody, 1% NEAA (Gibco), 2 mM glutamine and 1 mM sodium pyruvate. The human breast cancer cell line SK-BR-3 (HER2/ErbB2 amp, ATCC) was cultured with a McCOY'S5A complete medium (10% FBS).
Adherent cells were digested with 0.25% pancreatin-EDTA (Gibco). The suspension cells were collected by centrifugation. The supernatant was discarded and the cell pellet was resuspended and counted. Different cell concentrations (5˜10×10^4 cells/mL) were prepared according to the growth cycle of each cell line and then seeded on a 96-well plate (Corning), 100 μL/well. The cells were incubated overnight at 37° C., 5% CO2. The compounds were added to the cells on the second day with 2 wells in parallel. The final concentration of organic solvent shall not exceed 1%. The cells were continually incubated for 3 to 5 days, and then subjected to MTT assay.
The compound of the present invention and the control compound were dissolved in DMSO (Sigma) respectively, with the purity of more than 98%. The compound was stored in a concentration of 10 mM at −20° C. and diluted to 2- or 10-fold series prior to use.
Dojindo CCK8 reagent kit was used as MTT assay. THERMO […] FC meter was used as microplate reader.
For adherent cells, culture medium was removed and immediately replaced with the fresh prepared medium which contains 10% CCK8 reagent (100 μL/well). For the suspension cells, CCK8 was directly added to 10% of the final concentration. The cells were continually incubated for 1˜4 h. When a dark yellow color could be observed in the solvent control wells, the absorbance value at OD450 nm was measured and the cell growth rate was calculated according to the following formula: Cell Growth Rate (%)=100*(T−T0)/(C−T0) T=optical density of drug treatment cell well—optical density of blank control well; T0=optical density of cell well before drug treatment—optical density of blank control well; C=optical density of cell well of solvent control group—optical density of blank control well. The concentration value of 50% inhibition of cell growth (GI50) was calculated according to the drug concentration and cell growth rate curve. The experiment was independently repeated 1˜3 times, and subject to biological statistical analysis. 4. Experimental Results
Tumor cell growth inhibition test was performed by selecting representative compounds (compounds 4, 11, 12, 16, 27, 68, 71, 77, 79, 89 and 116 of the present invention). […]

Compound: CC(C)(C)c1cc(NC(=O)Nc2ccc(-n3cnc4cc(OCCN5CCOCC5)ccc43)cc2)no1 [Compound 16, 1-(5-tert-butyl-isoxazol-3-yl)-3-{4-[5-(2-morpholin-4-yl-ethoxyl)-benzimidazol-1-yl]-phenyl}-urea]
- GI50 [1]: > 1000 nM
- GI50 [2]: > 2500 nM

Compound: CC(C)(C)c1cc(N)n(C(=O)Nc2ccc(-n3cnc4ccccc43)cc2)n1 [Compound 116, 5-amino-3-tert-butyl-pyrazol-1-carboxylic acid (4-benzimidazol-1-yl-phenyl)-amide]
- GI50 [1]: > 1000 nM
- GI50 [2]: > 2500 nM

Compound: CC(C)(C)c1cc(NC(=O)Nc2ccc(-n3cnc4cc(OCCO)ccc43)cc2)[nH]n1 [Compound 79, 1-(5-tert-butyl-2H-pyrazol-3-yl)-3-{4-[5-(2-hydroxy-ethoxyl)-benzimidazol-1-yl]-phenyl]urea]
- GI50 [1]: > 1000 nM
- GI50 [2]: > 2500 nM

Compound: CC(C)(C)c1cc(NC(=O)Nc2ccc(-n3cnc4cc(OCCN5CCOCC5)ccc43)cc2)[nH]n1 [Compound 89, 1-(5-tert-butyl-2H-pyrazol-3-yl)-3-{4-[5-(2-morpholin-4-yl-ethoxyl)-benzimidazol-1-yl]-phenyl}-urea]
- GI50 [1]: > 1000 nM
- GI50 [2]: > 2500 nM

Compound: COCCOc1ccc2c(c1)ncn2-c1ccc(NC(=O)Nc2cc(C(C)(C)C)n[nH]2)cc1 [Compound 77, 1-(5-tert-butyl-2H-pyrazol-3-yl)-3-{4-[5-(2-methoxyl-ethoxyl)-benzimidazol-1-yl]-phenyl}-urea]
- GI50 [1]: > 1000 nM
- GI50 [2]: > 2500 nM

Compound: COc1ccc2c(c1)ncn2-c1ccc(NC(=O)Nc2cc(C(C)(C)C)n[nH]2)cc1 [Compound 71, 1-(5-tert-butyl-2H-pyrazol-3-yl)-3-[4-(5-methoxyl-benzimidazol-1-yl)-phenyl]-urea]
- GI50 [1]: > 1000 nM
- GI50 [2]: > 2500 nM

Compound: CC(C)(C)c1cc(NC(=O)Nc2ccc(-n3cnc4ccccc43)cc2)[nH]n1 [Compound 68, 1-(4-benzimidazol-1-yl-phenyl)-3-(5-tert-butyl-2H-pyrazol-3-yl)-urea]
- GI50 [1]: > 1000 nM
- GI50 [2]: > 2500 nM

Compound: CC(C)(C)c1cc(NC(=O)Nc2ccc(-n3cnc4ccc(OCCN5CCOCC5)cc43)cc2)no1 [Compound 27, 1-(5-tert-butyl-isoxazol-3-yl)-3-{4-[6-(2morpholin-4-yl-ethoxyl)-benzimidazol-1-yl]-phenyl}-urea]
- GI50 [1]: > 1000 nM
- GI50 [2]: > 2500 nM

Compound: CC(C)(C)c1cc(NC(=O)Nc2ccc(-n3cnc4cc(O)ccc43)cc2)no1 [Compound 4, 1-(5-tert-butyl-isoxazol-3-yl)-3-[4-(5-hydroxy-benzimidazol-1-yl)-phenyl]-urea]
- GI50 [1]: 100 to 1000 nM
- GI50 [2]: > 2500 nM

Compound: CC(C)(C)c1cc(NC(=O)Nc2ccc(-n3cnc4cc(OCCO)ccc43)cc2)no1 [Compound 11, 1-(5-tert-butyl-isoxazol-3-yl)-3-{4-[5-(2-hydroxy-ethoxyl)-benzimidazol-1-yl]-phenyl]-urea]
- GI50 [1]: > 1000 nM
- GI50 [2]: > 2500 nM
